Laboratory results: patent publication US20110251135A1, “INHIBITORS OF PERITONEAL SEEDING OF CANCER CELLS” (University of Utah Research Foundation, priority 2008, published 2011)

Columns and labels:
[1] = test system: HCT-116 cells transfected with human c-FLIP or empty vector; assay: Annexin V-FITC assay, readhesion of HCT-116 cells transfected with human c-FLIP or empty vector; assay type: cell-based; details: readhesion 8 hours
Description: Since HCT-116 colon cancer cells have relatively low levels of FLIP compared with other cancer cell lines (FIG. 13A), they were transfected with human c-FLIP. HCT-116 cells that were transfected with human c-FLIP or empty vector were transiently suspended and allowed to readhere in the presence of BAY 11-7085 for 8 hours. […] Thus, FLIP appears to be an important target of BAY 11-7085 and is able to inhibit BAY 11-7085-mediated apoptosis during colon cancer cell readhesion.

JNK = JNK activity (phosphorylation of c-JUN) in colon and pancreatic cancer cell lines; assay type: cell-based, human
[2] = test system: BxPc-3 pancreatic cancer cells; assay: Athymic mouse model of peritoneal carcinomatosis (IP cancer cells, bioluminescent imaging, 9 days); assay type: in vivo; details: BxPc-3 IP; BAY 11-7085 5 mg/kg IP 24 h before, then every 3 days for 9 days
Description: (§1) Twenty-four hours later, […] Su.86 or BxPC-3 pancreatic cancer cells, that were stably transfected with a firefly luciferase construct, were delivered IP. […] At the end of treatment, the mice received luciferin IP and sacrificed. The abdominal cavities were exposed and the mice placed immediately in a bioluminescent imager and photographed. The individual intraabdominal peritoneal tumors were counted. The subset of tumor implants limited to the liver surface was determined as well. […] The proportion of mice with peritoneal and/or hepatic tumor implants were compared using a test of proportions (*p<0.05).

[3] = test system: Su.86 pancreatic cancer cells; assay: as above; assay type: in vivo; details: Su.86 IP; BAY 11-7085 5 mg/kg IP 24 h before, then every 3 days for 9 days
Description: as §1

[4] = test system: transiently suspended Caco-2 cells; assay: Apoptosis of transiently suspended cells during readhesion (annexin V assay); assay type: cell-based, human; details: Caco-2 transiently suspended, treated and allowed to readhere
Description: Single cell suspensions were plated at 100,000 cells per well in 24-well plates in media containing DMSO, BAY 11-7082, BAY 11-7085, or MG-132 for 8-24 hours in an incubator. Alternatively, DMSO, BAY 11-7082, BAY 11-7085, or MG-132 were added to cells that were confluent and adherent for several days. The nonadherent cells were aspirated off with the media and spun for 3 minutes at 2,000 rpm in 15 mL polypropylene tubes. The adherent cells were washed twice with PBS, dispersed in trypsin, and spun down for 3 minutes at 2,000 rpm in 15 mL polypropylene tubes. […] 400 μL of binding buffer was added to each tube and the cells were analyzed by flow cytometry immediately. The percent of apoptosis was determined as the percent of annexin V-positive, propidium iodide-negative cells of the total cells counted.
Since trypsin can activate protease-activated receptor-2 in colon cancer cell lines, which then results in increased cell proliferation, (Darmoul et al., “Initiation of human colon cancer cell proliferation by trypsin acting at protease-activated receptor-2,” Br J Cancer 85:772-9, 2001). NF-κB activation was determined in adherent and confluent DLD-1, HCT-116, Caco-2 and HT-29 cells that were removed from plastic dishes by trypsin or scraping.

HCT-116 cells = assay: Soft agar colony formation assay; assay type: cell-based, human; details: 10 μM for 6 days
Description: (§2) DLD-1, HCT-116, and HT-29 cells were cultured for 6 days in soft agar in the presence of DMSO (control), 10 μM BAY 11-7082, or 10 μM BAY 11-7085. The data points represent the means of colony counts per field (20×) performed in 5 different regions of the culture dishes. The data shown represent a typical result of two separate experiments. FIG. 2B and FIG. 2C are graphs that show athymic mice received subcutaneous injections of HT-29 (FIG. B) or HCT-116 (FIG. C) cells, followed by […] of BAY 11-7085 (dark bars) or DMSO (white bars) intraperitoneally twice weekly. The bars represent the 25-75% ranges of the tumor volumes and the horizontal lines in the bars are the medians. Using the Kruskal-Wallace statistical test to compare the median tumor volumes between BAY 11-7085 and DMSO yielded a p-value of 0.005 for HT-29 cells but >0.05 for HCT-116 cells.
(§3) Anchorage-independent cell growth is a hallmark of cancer cells and is a good correlation to tumorigencity in vivo. Therefore, the effects of BAY 11-7082 and BAY 11-7085 were examined on colon cancer cell growth using the soft agar colony formation assay.

HT-29 cells = assay: Soft agar colony formation assay; assay type: cell-based, human; details: 10 μM for 6 days
Description: as §2, §3

DLD-1 cells = assay: Soft agar colony formation assay; assay type: cell-based, human; details: 10 μM for 6 days
Description: as §2, §3

[5] = test system: pancreatic (Su.86, PL-45) and colon cancer cells (HT-29); assay: Cleaved PARP western blot during readhesion; assay type: cell-based, human; details: 10-20 μM BAY 11-7085; 8 hours
Description: FIG. 10 is a graph showing that BAY 11-7085 induces apoptosis of pancreatic and colon cancer cells during readhesion. Pancreatic (Su.86, PL-45) and colon cancer cells (HT-29) were transiently suspended and allowed to readhere in the presence or absence of vehicle or various concentrations of BAY 11-7085 for 8 hours. The floating and adherent cells were collected and lysed. Western blots for cleaved PARP were performed to determine if the cells were undergoing apoptosis (FIG. 10A). Transiently suspended pancreatic cancer cells ([…] per well) were allowed to readhere in the presence of vehicle or various concentrations of BAY 11-7085 for 24 hours. Nonadherent apoptotic cells were washed away and the remaining adherent cells stained with crystal violet and then dried. The crystal violet stained cells were lysed and the absorbance read in a plate spectrophotometer (FIG. 10B). […] The results are expressed as a percentage of cells surviving compared with vehicle alone.
BxPc-3, PL-45, Su.86.86 and HT-29 cells were transiently suspended and treated in vitro with varying concentrations of BAY 11-7085 or DMSO for four to eight hours. […] The degree of apoptosis was determined by western blotting for cleaved PARP.

## CC(C)(C)c1ccc(S(=O)(=O)/C=C/C#N)cc1 [BAY 11-7085, (2E)-3-[4-(tertiarybutylphenyl)sulfonyl]-2-propenenitrile]
[1]; HCT-116 over-expressing FLIP
  apoptosis (Annexin V-FITC assay): much more resistant to BAY 11-7085
[1]; control (empty vector) HCT-116
  apoptosis (Annexin V-FITC assay): induced apoptosis
JNK
  JNK activity (phosphorylation of c-JUN): readily induced JNK activity
[2]
  % with Liver Implants: 29%
  % with Peritoneal Implants: 71%
[3]
  % with Liver Implants: 0%
  % with Peritoneal Implants: 33%
[4]
  BAY 11-7085-induced apoptosis during readhesion: moderate increase
HCT-116 cells
  anchorage-independent proliferation: but not HCT-116
HT-29 cells
  anchorage-independent proliferation: significantly inhibited
DLD-1 cells
  anchorage-independent proliferation: significantly inhibited
[5]
  apoptosis (cleaved PARP levels) during cell readhesion: increased apoptosis (cleaved PARP levels)
